Measured values taken from EP0095295B1, “Cyclic peptide derivatives” (ELI LILLY AND COMPANY, priority 1982, dated 1987).

Tests used:
[1] = acute toxicity in mice; format: in vivo; conditions: administered intravenously to mice
Experimental: The acute toxicity of NTrp-p-(n-dodecyloxy)benzoyl-A―21978C, when administered intravenously to mice and expressed as LDso, was 67.5 mg/kg.

[2] = fermentation medium, pH values above pH 7.2
Description: In stirred fermentors the pH may be controlled by sensor controllers. Where this is impractical, such as in flask fermentors, pH may be controlled by adding 0.1 molar phosphate buffer to the medium prior to addition of the substrate.

[3] = solubility (listed characteristics); format: physicochemical; conditions: water

Compound	acute toxicity expressed as LDso [1]	stability (alkaline hydrolysis) [2]	Solubility [3]
CCCCCCCCCCCCOc1ccc(C(=O)N[C@@H](Cc2c[nH]c3ccccc23)C(=O)N[C@@H](CC(N)=O)C(=O)N[C@@H](CC(=O)O)C(=O)N[C@@H]2C(=O)NCC(=O)N[C@@H](CCCN)C(=O)N[C@@H](CC(=O)O)C(=O)N[C@H](C)C(=O)N[C@@H](CC(=O)O)C(=O)NCC(=O)N[C@H](CO)C(=O)N[C@@H]([C@H](C)CC(=O)O)C(=O)N[C@@H](CC(=O)c3ccccc3N)C(=O)O[C@@H]2C)cc1 [NTrp-p-(n-dodecyloxy)benzoyl-A―21978C, NTrp-P-(n-dodecyloxy)benzoyl-A-21978C Nucleus]	67.5 mg/kg	–	–
C[C@H](CC(=O)O)[C@@H]1NC(=O)[C@@H](CO)NC(=O)CNC(=O)[C@H](CC(=O)O)NC(=O)[C@@H](C)NC(=O)[C@H](CC(=O)O)NC(=O)[C@H](CCCN)NC(=O)CNC(=O)[C@@H](NC(=O)[C@H](CC(=O)O)NC(=O)[C@H](CC(N)=O)NC(=O)[C@@H](N)Cc2c[nH]c3ccccc23)[C@@H](C)OC(=O)[C@H](CC(=O)c2ccccc2N)NC1=O [A-21978C nucleus]	–	increasingly subject to alkaline hydrolysis	soluble in water
